Test systems include OVCAR-5 ovarian; NCI-H460 lung; T-47D breast; U251 CNS; EKVX NSCLC; SNB-19 CNS; UACC-62 melanoma; SF-268 CNS; HT29 colon; HL-60(TB) leukemia.
Holding throughout (test): inhibition of tumour cell growth, NCI panel, 48 h

In PubChem BioAssay (NCI) one finds TGI and GI50 data, which are given here for 22 molecules.

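Five concentrations, 48 hours, 96-well plates. Here, GI50 denotes the concentration required for 50% inhibition of growth. Definition used: TGI = concentration required for complete inhibition of growth.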

With `CC1(C)OCC2OC3([C@@H]4OC(C)(C)O[C@H]4CO)OC(C)(C)OC3C2O1` (stereo partly specified), the TGI with OVCAR-5 ovarian, with NCI-H460 lung, with T-47D breast, in the test on U251 CNS, in the test on EKVX NSCLC and in the test on SNB-19 CNS was more than 100 µM each time. For the same molecule, the TGI in the test with UACC-62 melanoma was more than 100 µM.

In the case of `CN1C(=O)N(C)C(O)C(Cl)(Br)C1=O` (stereo unspecified), the TGI in the test with SF-268 CNS, in the test on HT29 colon, with HL-60(TB) leukemia, with OVCAR-5 ovarian, in the test on NCI-H460 lung and in the test with U251 CNS was more than 100 µM throughout. Besides, the TGI in the test on EKVX NSCLC, in the test on SNB-19 CNS and in the test with UACC-62 melanoma was more than 100 µM each time.

Turning to `O=P(O)(O)c1ccccc1Oc1ccccc1`, the TGI in the test on SF-268 CNS, in the test on HL-60(TB) leukemia, in the test on OVCAR-5 ovarian, with NCI-H460 lung, in the test on U251 CNS and in the test on EKVX NSCLC was more than 100 µM throughout. In addition, the TGI with SNB-19 CNS and with UACC-62 melanoma was more than 100 µM each time.

Regarding `CC1=NN(c2nc(N)nc(-c3sccc3N)n2)C(C)(C)C1`, the TGI with SF-268 CNS, in the test on HT29 colon, with HL-60(TB) leukemia, in the test on OVCAR-5 ovarian, with NCI-H460 lung and in the test on U251 CNS was more than 100 µM each time. In addition, the TGI with EKVX NSCLC, with SNB-19 CNS and with UACC-62 melanoma was more than 100 µM in each case.

Turning to `COC(=O)C1=C(C(=O)OC)SC(=CC#CC=C2SC(C(=O)OC)=C(C(=O)OC)S2)S1`, the TGI in the test with SF-268 CNS was more than 60.1 µM; with HT29 colon, more than 100 µM; in the test on HL-60(TB) leukemia, more than 100 µM; in the test with OVCAR-5 ovarian it was more than 100 µM; with NCI-H460 lung, more than 100 µM; in the test with U251 CNS, 33.1 µM. For the same molecule, the TGI is more than 100 µM with EKVX NSCLC, 26.2 µM with SNB-19 CNS and 29.1 µM in the test on UACC-62 melanoma.

`CCC1=C(C(C)=O)[C@@H]2CCCCC[C@@H](C(=O)OC)C2C1=O` (stereo partly specified): the TGI in the test on SF-268 CNS, with HT29 colon, in the test on HL-60(TB) leukemia, with OVCAR-5 ovarian, in the test with NCI-H460 lung and with U251 CNS was more than 100 µM each time. The TGI in the test with EKVX NSCLC, in the test on SNB-19 CNS and with UACC-62 melanoma was more than 100 µM throughout.

For the molecule `N#C/C(=C/n1c(=S)[nH]c2ccc([N+](=O)[O-])cc21)C(N)=O`, the TGI in the test with SF-268 CNS, in the test on HT29 colon, with HL-60(TB) leukemia, with OVCAR-5 ovarian, with NCI-H460 lung and in the test with U251 CNS was more than 100 µM in each case. Besides, the TGI in the test on EKVX NSCLC, in the test on SNB-19 CNS and in the test with UACC-62 melanoma was more than 100 µM in each case.

As for `CC(C)N1CC2CC(CN(C(=O)c3ccccc3)C2)C1`, the TGI in the test on SF-268 CNS, in the test on HT29 colon, in the test with HL-60(TB) leukemia, in the test on OVCAR-5 ovarian, with NCI-H460 lung and in the test on U251 CNS was more than 100 µM in each case. In addition, the TGI with EKVX NSCLC, in the test on SNB-19 CNS and with UACC-62 melanoma was more than 100 µM throughout.

Take `CSc1nc(NC(C)C)c2c(n1)Sc1nc3ccccc3n1N=C2`: the TGI was more than 100 µM with SF-268 CNS; more than 100 µM in the test on HT29 colon; more than 100 µM in the test on HL-60(TB) leukemia; more than 100 µM in the test on OVCAR-5 ovarian; 79.5 µM in the test with NCI-H460 lung; 29.9 µM with U251 CNS. Moreover, the TGI in the test on EKVX NSCLC is more than 100 µM; in the test on SNB-19 CNS, 39 µM; in the test with UACC-62 melanoma it was 23.6 µM.

`Cn1c(=O)c(-c2ccccc2)c(O)c2ccccc21`: the TGI with SF-268 CNS, in the test on HT29 colon, in the test on HL-60(TB) leukemia, in the test on OVCAR-5 ovarian, with NCI-H460 lung and in the test with U251 CNS was more than 100 µM in each case. Also, the TGI in the test on EKVX NSCLC and with SNB-19 CNS was more than 100 µM each time.

Turning to `COc1ccc(C2C3=C(COC3=O)Oc3cc4c(cc32)OCO4)c(OC)c1` (stereo unspecified), the TGI was more than 100 µM in the test on SF-268 CNS; more than 100 µM with HT29 colon; 39.9 µM in the test on HL-60(TB) leukemia; more than 100 µM with OVCAR-5 ovarian; more than 100 µM in the test on NCI-H460 lung; more than 100 µM in the test on U251 CNS. The TGI in the test on EKVX NSCLC and with SNB-19 CNS was more than 100 µM each time.

Turning to `NCCCCNCCCNC(=O)c1nc(-c2nc(CCN)sc2Cl)sc1Cl`, the TGI in the test on SF-268 CNS is 25.4 µM; in the test with HT29 colon, more than 100 µM; with HL-60(TB) leukemia, more than 100 µM; in the test with OVCAR-5 ovarian, more than 100 µM; with NCI-H460 lung, more than 100 µM; in the test with U251 CNS it was more than 100 µM. In addition, the TGI in the test on EKVX NSCLC, in the test with SNB-19 CNS and in the test with UACC-62 melanoma was more than 100 µM throughout.

On to `CN(C)CCNC(=O)c1cc(Cl)cc2ccc(-c3ccccc3)nc12`, for which the TGI in the test on SF-268 CNS came out at 19.2 µM; with HT29 colon it was 10.7 µM; in the test with HL-60(TB) leukemia, 4.88 µM; with OVCAR-5 ovarian, 13.7 µM; in the test with NCI-H460 lung, 7.09 µM; in the test with U251 CNS it was 15.3 µM. Also, the figures for the TGI with EKVX NSCLC, in the test with SNB-19 CNS and with UACC-62 melanoma were 21.5 µM, 18.8 µM and 6.36 µM, respectively.

For the molecule `O=S(=O)(O)c1ccc(N=Nc2ccc(N=Nc3ccc(/C=C/c4ccc(N=[N+]([O-])c5ccc(/C=C/c6ccc(N=Nc7ccc(N=Nc8ccc(S(=O)(=O)O)cc8)cc7)cc6S(=O)(=O)O)c(S(=O)(=O)O)c5)cc4S(=O)(=O)O)c(S(=O)(=O)O)c3)cc2)cc1`, the TGI in the test with SF-268 CNS, with HT29 colon, in the test on HL-60(TB) leukemia, in the test on OVCAR-5 ovarian, in the test with NCI-H460 lung and in the test on U251 CNS was more than 100 µM in each case. Besides, the TGI with EKVX NSCLC, in the test with SNB-19 CNS and in the test with UACC-62 melanoma was more than 100 µM in each case.

As to `Cc1ccc(C(=O)N/N=C(\N=Nc2ccccc2)c2ccc(N(C)C)cc2)cc1`, the TGI with SF-268 CNS, in the test with HT29 colon, in the test on HL-60(TB) leukemia, with OVCAR-5 ovarian, with NCI-H460 lung and in the test on U251 CNS was more than 100 µM throughout. Besides, the TGI in the test with EKVX NSCLC, with SNB-19 CNS and in the test with UACC-62 melanoma was more than 100 µM in each case.

Turning to `CCOC(=O)C1(C#N)C(c2ccccc2)CC(O)(c2ccc(Cl)cc2)C(C(=O)c2ccc(Cl)cc2)C1c1ccccc1` (stereo unspecified), the TGI with SF-268 CNS, with HT29 colon, in the test with HL-60(TB) leukemia, with OVCAR-5 ovarian, in the test with NCI-H460 lung and in the test on EKVX NSCLC was more than 100 µM throughout. Besides, the TGI with SNB-19 CNS is 90.8 µM; in the test with UACC-62 melanoma it was more than 100 µM.

For `CCc1c(CNc2ccc(C(=O)NC(CC(=O)O)C(=O)O)cc2)ccc2nc(N)nc(N)c12` (stereo unspecified), the TGI in the test on SF-268 CNS, in the test with HT29 colon, in the test on OVCAR-5 ovarian, in the test on NCI-H460 lung, in the test on U251 CNS and in the test on EKVX NSCLC was more than 1000 µM each time. In addition, the TGI in the test with SNB-19 CNS and with UACC-62 melanoma was more than 1000 µM each time. Moreover, the values for the GI50 with U251 CNS, in the test on EKVX NSCLC and with SNB-19 CNS were 372 µM, 558 µM and 0.188 µM, respectively.

Turning to `CCC(O)(Cc1ccc(OC)cc1)c1ccc(OC)cc1` (stereo unspecified), the TGI in the test on SF-268 CNS, in the test on HT29 colon, in the test with HL-60(TB) leukemia, in the test with OVCAR-5 ovarian, with NCI-H460 lung and in the test with U251 CNS was more than 100 µM throughout. Also, the TGI with EKVX NSCLC, in the test on SNB-19 CNS and in the test on UACC-62 melanoma was more than 100 µM throughout.

As for `CC(C)(C)OC(=O)NC(Cc1ccccc1)NC(=O)NC(=O)OCc1ccccc1` (stereo unspecified), the TGI with SF-268 CNS, in the test with HT29 colon, with OVCAR-5 ovarian, with NCI-H460 lung, with U251 CNS and in the test on EKVX NSCLC was more than 100 µM throughout. Moreover, the TGI in the test with SNB-19 CNS and in the test with UACC-62 melanoma was more than 100 µM in each case.

For `Cc1cc(C)nc(NS(=O)(=O)c2ccc(Nc3c4ccccc4nc4c(C(=O)N5CCN(CCOS(C)(=O)=O)CC5)cccc34)cc2)n1`, the TGI in the test with SF-268 CNS, with HT29 colon, in the test on HL-60(TB) leukemia, in the test with OVCAR-5 ovarian, with NCI-H460 lung and in the test on U251 CNS was more than 100 µM in each case. In addition, the TGI in the test on SNB-19 CNS and in the test with UACC-62 melanoma was more than 100 µM each time.

As to `CCCCOc1ccc(OCCCCCCCCCC[N+](C)(C)C)cc1`, the TGI in the test with SF-268 CNS was 13.9 µM; in the test on HT29 colon it was 2.46 µM; with HL-60(TB) leukemia, 1.49 µM; with OVCAR-5 ovarian, 17.2 µM; with NCI-H460 lung, 12.7 µM; with U251 CNS it was 9.16 µM. The values for the TGI in the test with EKVX NSCLC, in the test on SNB-19 CNS and in the test on UACC-62 melanoma were 46 µM, 23.3 µM and 15.7 µM, respectively.

`COc1ccccc1CN=C1Nc2ccncc2S(=O)(=O)N1c1ccccc1`: the TGI in the test with HT29 colon, in the test with HL-60(TB) leukemia, in the test on OVCAR-5 ovarian, in the test on NCI-H460 lung, in the test on U251 CNS and with EKVX NSCLC was more than 100 µM throughout. Besides, the TGI in the test with SNB-19 CNS and with UACC-62 melanoma was more than 100 µM throughout.
